Results: patent publication US8003630B2, “Combinatorial therapies for the treatment of neoplasias using the opioid growth factor receptor” (The Penn State Research Foundation, priority 2004, dated 2011)
Marks after values point to notes of the source that are not given here.

What was measured:
[1] = system: carcinomas of the colon and rectum; conditions: single agent; cited from earlier work
[2] = metabolized primarily in the liver; cited from earlier work
MiaPaCa-2 cells [3] = test: Growth curves of MiaPaCa-2 cells, cell proliferation (MTT) assay, absorbency; conditions: for Significance from 5-FU 10^−6 M Values: 5-FU 10^−5 M alone or with OGF; for Significance from 5-FU 10^−5 M Values: 5-FU 10^−6 M alone or with OGF (b: 5-FU 10^−5 M more inhibitory); for decrease in cell number from controls: MiaPaCa-2
Text: (§3) Cells were counted using a standard MTT assay. In general, each data point represents the average absorbency taken from 10 wells/treatment; error bars represent the S.E.M.

SCC-1 cells [4] = test: Cell proliferation assays of SCC-1 cells (MTS or cell counting), Example 8; format: cell-based, human; conditions: SCC-1, MTS, carboplatin 10^−7 M
Procedure: The UM-SCC-1 cell line (SCC-1) was derived from a well-differentiated recurrent squamous cell carcinoma in the floor of the mouth of a person (25). This cell line was obtained from The University of Michigan, Cancer Research Laboratory (Thomas E. Carey, Ph.D., Director). CAL-27 human squamous cell carcinoma cell line, derived from a poorly differentiated carcinoma of the tongue in a person ([…]), was obtained from the American Type Culture Collection (Manassas, Va.). Both cell lines were grown in Dulbecco's MEM (modified) media supplemented with 10% fetal calf serum, 1.2% sodium bicarbonate, and antibiotics (5,000 Units/ml penicillin, 5 mg/ml streptomycin, 10 mg/ml neomycin). The cell cultures were maintained in a humidified atmosphere of 7% CO2/93% air at 37° C.
Cells were seeded at equivalent amounts into either 6-well or 96-well plates (Falcon) and counted 24 hr later to determine plating efficiency.
The dosage of carboplatin selected was based on previous reports (27, 28), as well as preliminary studies in our laboratory.
Cell number was recorded either by using the MTS proliferation bioassay (Cell Titer 96 One Solution, Promega, Madison, Wis.) and measuring absorbency after 4 hr on a Biorad (Model 3550) plate reader at 490 nm with a 750 nm background absorbance screening, or by directly counting cells. The MTS assay utilized 10 wells/treatment. For manual counts, cells were harvested by trypsinization with 0.25% trypsin/0.53 mM EDTA, centrif uiged, and counted with a hemacytometer. Cell viability was determined by trypan blue staining. At least two aliquots per well, and 4-10 wells/treatment, were counted at each time for manual counting.
For some experiments, the rate of growth over a 96-hr period of time was calculated using linear regression analyses. The slopes of the lines (number of cells/hr) were compared by analysis of variance. All calculations were performed with GraphPad Prism software.

SCC-1 cells [5] = test: Growth curves of SCC-1 cells, cell proliferation (MTT) assay, absorbency
Text: as §3

MiaPaCa-2 cells [6] = test: Gemcitabine and OGF cell cycle phase analysis by flow cytometry; format: cell-based, human
Procedure: To investigate the exact cell cycle phase where gemcitabine and/or OGF exerted their effects, flow cytometry was performed.

MiaPaCa-2 cells [7] = test: OGF/gemcitabine treatment in athymic nude mouse model (Example 5); format: in vivo, athymic nude mice; conditions: day 16 after tumor cell inoculation
Text: To examine the effectiveness of the combined OGF/gemcitabine treatments in vivo, an athymic nude mouse model was used.

MiaPaCa-2 cells [8] = test: Gemcitabine growth curve, actual cell counts; format: cell-based, human; conditions: MiaPaCa-2 cell counts
MIA PaCa-2 cells [9] = test: Growth assays of MIA PaCa-2 cells (MTS assay or cell counting), Example 7; format: cell-based, human; conditions: for decrease in cell number relative to controls: OGF 10^−6 M and/or gemcitabine 10^−8 M
Procedure: (§1) MIA PaCa-2 and PANC-1 human pancreatic adenocarcinoma cell lines were purchased from the American Type Culture Collection (Manasass, Va.). MIA PaCa-2 cells were derived from an undifferentiated epithelial carcinoma occurring in the body and tail of the pancreas in a person. The PANC-1 cells were derived from an undifferentiated carcinoma from the head of the pancreas in a person. MIA PaCa-2 and PANC-1 cells were grown in Dulbecco's MEM (modified) media; media was supplemented with 10% fetal calf serum, 1.2% sodium bicarbonate, and antibiotics (5,000 Units/ml penicillin, 5 mg/ml streptomycin, 10 mg/ml neomycin), and the cells were maintained in a humidified atmosphere of 7% CO2/93% air at 37° C.
MIA PaCa-2 cells were seeded at equivalent amounts into either 75 cm^2 flasks, 6-well plates, or 96-well plates (Falcon) and counted 24 hr later to determine plating efficiency. Growth assays for PANC-1 cells were conducted in 6-well plates (Falcon). Compounds or sterile water were added beginning 24 hr after seeding (=0 hr), and both media and compounds were replaced daily. All drugs were prepared in sterile water and dilutions represent final concentrations of the compounds.
(§2) Cell number was recorded either by using a mitogenic bioassay, the MTS assay (Cell Titer 96 One Solution, Promega, Madison, Wis.), and measuring absorbency after 4 hr on a Biorad (Model 3550) plate reader at 490 nm, or by counting cells. For manual counts, cells were harvested with a solution of 0.25% trypsin/0.53 mM EDTA, centrif uiged, and counted with a hemacytometer. Cell viability was determined by trypan blue staining. At least two aliquots per flask or 4-10 wells/treatment were counted at each time.

PANC-1 cells = test: Growth assay of PANC-1 cells in 6-well plates; format: cell-based, human; conditions: 72 hr, OGF 10^−6 M and/or gemcitabine 10^−8 M
Procedure: as §1
MIA PaCa-2 cells were seeded at equivalent amounts into either 75 cm^2 flasks, 6-well plates, or 96-well plates (Falcon) and counted 24 hr later to determine plating efficiency. […]
as §2

MIA PaCa-2 cells [10] = test: MIA PaCa-2 xenograft in nude mice, tumor appearance, growth and termination day measurements (Example 7); format: in vivo, BALB/c-nu/nu nude mice
Text: Male 4 week old BALB/c-nu/nu nude mice purchased from Harlan Laboratories (Indianapolis, Ind.) were housed in pathogen-free isolators in the Department of Comparative Medicine at the Penn State University College of Medicine. All procedures were approved by the IACUC committee of the Penn State University College of Medicine and conformed to the guidelines established by NIH. Mice were allowed 48 hr to acclimate prior to beginning experimentation.
MIA PaCa-2 cells (10^6 cells/mouse) were inoculated into nude mice by subcutaneous injection into the right scapular region; mice were not anesthetized for this procedure.
All drugs were dissolved in saline and prepared weekly. Injections were given within 1 hr of tumor cell inoculation.
Mice were weighed weekly throughout the experiment, and observed daily for the presence of tumors. The latency for a visible tumor to appear, and the time until tumors were measurable (i.e., 62.5 mm^3) were recorded. Tumors were measured using calipers every day after tumor appearance. Tumor volume was calculated using the formula w^2×1×π/6, where the length is the longest dimension, and width is the dimension perpendicular to length.
According to IACUC guidelines, mice were terminated when tumors became ulcerated, or tumors grew to 2 cm in diameter. Forty-five days following tumor cell inoculation, all mice were euthanized by an overdose of sodium pentobarbital (100 mg/kg) and killed by cervical dislocation; mice (with tumors) were weighed. Tumors and spleens were removed and weighed, and the lymph nodes, liver, and spleen examined for metastases.

For `O=c1[nH]cc(F)c(=O)[nH]1` [5-FU, 5-fluorouracil], the mean response rate [1] is listed as “less than 20%”, the “drug appearing unchanged in urine” value [2] is listed as 10% and the “Significance from 5-FU 10^−6 M Values” (MiaPaCa-2 cells [3]; 48 h) is listed as “###^b (Significantly different from 5-FU 10^−6 M at p < 0.001 (###))”. For the same compound, the “Significance from 5-FU 10^−5 M Values” (MiaPaCa-2 cells [3]; 48 h) was “^^^^b (Significantly different from 5-FU 10^−5 M at p < 0.001)”, the “Significance from 5-FU 10^−6 M Values” (MiaPaCa-2 cells [3]; 72 h) was “###^b (Significantly different from 5-FU 10^−6 M at p < 0.001 (###))” and the “Significance from 5-FU 10^−5 M Values” (MiaPaCa-2 cells [3]; 72 h) was “^^^^b (Significantly different from 5-FU 10^−5 M at p < 0.001)”. For the same compound, the “Significance from 5-FU 10^−6 M Values” (MiaPaCa-2 cells [3]; 96 h) was “###^b (Significantly different from 5-FU 10^−6 M at p < 0.001 (###))”, the “Significance from 5-FU 10^−5 M Values” (MiaPaCa-2 cells [3]; 96 h) was “^^^^b (Significantly different from 5-FU 10^−5 M at p < 0.001)” and the “decrease in cell number from controls” value (MiaPaCa-2 cells [3]; 48 h, 5-FU 10^-5 M and/or OGF 10^−6 M) was 26.0%. For the same compound, the “decrease in cell number from controls” value (MiaPaCa-2 cells [3]; 48 h, 5-FU 10^-6 M alone or with OGF 10^−6 M) was 12.7%, the “decrease in cell number from controls” value (MiaPaCa-2 cells [3]; 72 h, 5-FU 10^-5 M and/or OGF 10^−6 M) was 30.1% and the “decrease in cell number from controls” value (MiaPaCa-2 cells [3]; 72 h, 5-FU 10^-6 M alone or with OGF 10^−6 M) was 10.8%. The “decrease in cell number from controls” value (MiaPaCa-2 cells [3]; 96 h, 5-FU 10^-5 M and/or OGF 10^−6 M) was 36.4% and the “decrease in cell number from controls” value (MiaPaCa-2 cells [3]; 96 h, 5-FU 10^-6 M alone or with OGF 10^−6 M) was 15.2%.
In the case of `N.N.O=C([O-])C1(C(=O)[O-])CCC1.[Pt+2]` [carboplatin], the “reduction of cell number from control levels” value (SCC-1 cells [4]; 72 hr) is reported as 19%, the “reduction of cell number from control levels” value (SCC-1 cells [4]; 96 hr) is reported as 21% and the “decrease in cell number relative to controls” value (SCC-1 cells [5]; 48 h, carboplatin 10^−6 M and/or OGF 10^−6 M) is reported as 5.3%. For the same compound, the “decrease in cell number relative to controls” value (SCC-1 cells [5]; 72 h, carboplatin 10^−6 M and/or OGF 10^−6 M) was 21.8%, the “decrease in cell number relative to controls” value (SCC-1 cells [5]; 72 h, carboplatin 10^−7 M alone or with OGF 10^−6 M) was 18.7% and the “decrease in cell number relative to controls” value (SCC-1 cells [5]; 96 h, carboplatin 10^−6 M and/or OGF 10^−6 M) was 24.9%. The “decrease in cell number relative to controls” value (SCC-1 cells [5]; 96 h, carboplatin 10^−7 M alone or with OGF 10^−6 M) was 21%.
For `Nc1ccn([C@@H]2O[C@H](CO)[C@@H](O)C2(F)F)c(=O)n1` [gemcitabine], the “cells in the G1 phase of the cell cycle” value (MiaPaCa-2 cells [6]; 48 hours of treatment) was 73.50%, the “cells in the G1 phase of the cell cycle” value (MiaPaCa-2 cells [6]; 120 hours of treatment) was 60.75% and the mice with tumors (MiaPaCa-2 cells [7]) was 75%. For the same compound, the “decrease in cell number relative to controls” value (MiaPaCa-2 cells [8]; 24 h, gemcitabine 10^−7 M or OGF 10^−6 M alone) was 30.1%, the “decrease in cell number relative to controls” value (MiaPaCa-2 cells [8]; 48 h, gemcitabine 10^−7 M or OGF 10^−6 M alone) was 46.4% and the “decrease in cell number relative to controls” value (MiaPaCa-2 cells [8]; 48 h, gemcitabine 10^−8 M alone or with OGF 10^−6 M) was 21.7%. For the same compound, the “decrease in cell number relative to controls” value (MiaPaCa-2 cells [8]; 72 h, gemcitabine 10^−7 M or OGF 10^−6 M alone) was 47.7%, the “decrease in cell number relative to controls” value (MiaPaCa-2 cells [8]; 72 h, gemcitabine 10^−8 M alone or with OGF 10^−6 M) was 21.2% and the “decrease in cell number relative to controls” value (MiaPaCa-2 cells [8]; 96 h, gemcitabine 10^−7 M or OGF 10^−6 M alone) was 64.2%. For the same compound, the “decrease in cell number relative to controls” value (MiaPaCa-2 cells [8]; 96 h, gemcitabine 10^−8 M alone or with OGF 10^−6 M) was 32.4%, the inhibition at 0.01 µM (MIA PaCa-2 cells [9]; Homo sapiens, MIA PaCa-2, 96 h, read-out: inhibition of cell growth relative to control levels) was 13 to 36% and the “decrease in cell number relative to controls” value (MIA PaCa-2 cells [9]; MIA PaCa-2, 48 hr) was 22%. The “decrease in cell number relative to controls” value (MIA PaCa-2 cells [9]; MIA PaCa-2, 72 hr) was 21%, the “difference in cell number between reversal group and group continuing drug exposure” value (MIA PaCa-2 cells [9]; MIA PaCa-2, 96 hr (48 hr after reversal)) was “did not differ” and the “decrease in cell number relative to controls” value (MIA PaCa-2 cells [9]; MIA PaCa-2, 96 hr) was 32%. The “fewer cells than in control cultures” value (PANC-1 cells) was 31%, the “day from which tumor volume differed from controls” value (MIA PaCa-2 cells [10]; at least p<0.05) was 14 days and the “mice with measurable tumors” value (MIA PaCa-2 cells [10]; day 10) was 75%. The “tumor volumes decreased from control values” (MIA PaCa-2 cells [10]; day 45) was 56%, the “weight of the spleen decreased from control values” (MIA PaCa-2 cells [10]; day 45) was “approximately 40%” and the “Body Weight” value (MIA PaCa-2 cells [10]; day 45, means ± SEM) was 27.4 ± 0.55 g. For the same compound, the “Spleen Weight” value (MIA PaCa-2 cells [10]; day 45, means ± SEM) was 454 ± 49 mg, the “Tumor Volume, mm^3” value (MIA PaCa-2 cells [10]; day 45, means ± SEM) was 3963 ± 123*** mm^3 and the “Tumor Weight” value (MIA PaCa-2 cells [10]; day 45, means ± SEM) was 2.4 ± 0.1 g. The “Latency to measurable tumor” value (MIA PaCa-2 cells [10]; means ± SEM) was 13.1 ± 1.0 days, the “Latency to visible tumor” value (MIA PaCa-2 cells [10]; means ± SEM) was 11.1 ± 1.1 days and the “Tumor Incidence, day 16” value (MIA PaCa-2 cells [10]; mice with tumor/N) was 11/12. For the same compound, the “Tumor Incidence, day 10” value (MIA PaCa-2 cells [10]; mice with tumor/N, OGF 10 mg/kg daily and/or gemcitabine 120 mg/kg every 3 days i.p.) was 9/12 and the “weights of tumors decreased from control levels” value (MIA PaCa-2 cells [10]; termination day (day 45)) was 56%.
